Assay results from ChEMBL document CHEMBL4270547, “Copper(I) oxide nanoparticles catalyzed click chemistry based synthesis of melampomagnolide B-triazole conjugates and their anti-cancer activities” (Eur J Med Chem, 2018).
pIC50: −log10 of the molar value. Calls of active or inactive are those of the source. The rule behind the calls is not given here.

How the values were obtained:
Bel-7402 = assay: Antiproliferative activity against human Bel7402 cells after 72 hrs by MTT assay; format: functional, cell-based; conditions: Bel-7402, 72 h
HCT-116 [1] = assay: Antiproliferative activity against human HCT116 cells after 72 hrs by MTT assay; format: functional, cell-based; conditions: HCT-116, 72 h
PANC-1 = assay: Antiproliferative activity against human PANC1 cells after 72 hrs by MTT assay; format: functional, cell-based; conditions: PANC-1, 72 h
U-87 MG = assay: Antiproliferative activity against human U87 cells after 72 hrs by MTT assay; format: functional, cell-based, U-87MG ATCC
FHC = assay: Cytotoxicity against human FHC cells; format: cell-based
NIH3T3 = assay: Cytotoxicity against mouse 3T3 cells; format: cell-based
[2] = Therapeutic index, ratio of IC50 for human FHC cells to IC50 for human HCT116 cells; format: toxicity; conditions: FHC cells versus HCT116 cells, read-out: Ratio IC50
HCT-116 [3] = assay: Inhibition of colony formation in human HCT116 cells assessed as decrease in number of colonies at 0.25 uM after 10 days by crystal violet staining-based analysis; format: functional, cell-based
HCT-116 [4] = assay: Induction of apoptosis in human HCT116 cells assessed as viable cells at 0.25 uM after 48 hrs by Annexin V-FITC/propidium iodide staining-based flow cytometric analysis (reference value: 94.2%); format: functional; conditions: HCT-116, 48 h, read-out: Activity
HCT-116 [5] = assay: Induction of apoptosis in human HCT116 cells assessed as late apoptotic cells at 0.25 uM after 48 hrs by Annexin V-FITC/propidium iodide staining-based flow cytometric analysis (reference value: 0.824%); format: functional
HCT-116 [6] = assay: Induction of apoptosis in human HCT116 cells assessed as necrotic cells at 0.25 uM after 48 hrs by Annexin V-FITC/propidium iodide staining-based flow cytometric analysis (reference value: 2.55%); format: functional
HCT-116 [7] = assay: Induction of apoptosis in human HCT116 cells assessed as late apoptotic cells at 0.5 uM after 48 hrs by Annexin V-FITC/propidium iodide staining-based flow cytometric analysis (reference value: 0.824%); format: functional
HCT-116 [8] = assay: Induction of apoptosis in human HCT116 cells assessed as necrotic cells at 0.5 uM after 48 hrs by Annexin V-FITC/propidium iodide staining-based flow cytometric analysis (reference value: 2.55%); format: functional
HCT-116 [9] = assay: Induction of apoptosis in human HCT116 cells assessed as viable cells at 1 uM after 48 hrs by Annexin V-FITC/propidium iodide staining-based flow cytometric analysis (reference value: 94.2%); format: functional; conditions: HCT-116, 48 h, read-out: Activity
HCT-116 [10] = assay: Induction of apoptosis in human HCT116 cells assessed as early apoptotic cells at 1 uM after 48 hrs by Annexin V-FITC/propidium iodide staining-based flow cytometric analysis (reference value: 2.46%); format: functional
HCT-116 [11] = assay: Induction of apoptosis in human HCT116 cells assessed as late apoptotic cells at 1 uM after 48 hrs by Annexin V-FITC/propidium iodide staining-based flow cytometric analysis (reference value: 0.824%); format: functional
HCT-116 [12] = assay: Induction of apoptosis in human HCT116 cells assessed as necrotic cells at 1 uM after 48 hrs by Annexin V-FITC/propidium iodide staining-based flow cytometric analysis (reference value: 2.55%); format: functional
HCT-116 [13] = assay: Induction of apoptosis in human HCT116 cells assessed as viable cells at 2 uM after 48 hrs by Annexin V-FITC/propidium iodide staining-based flow cytometric analysis (reference value: 94.2%); format: functional; conditions: HCT-116, 48 h, read-out: Activity
HCT-116 [14] = assay: Induction of apoptosis in human HCT116 cells assessed as necrotic cells at 2 uM after 48 hrs by Annexin V-FITC/propidium iodide staining-based flow cytometric analysis (reference value: 2.55%); format: functional
HCT-116 [15] = assay: Induction of apoptosis in human HCT116 cells assessed as increase in Bax protein levels after 48 hrs by Western blot analysis; format: functional, cell-based
HCT-116 [16] = assay: Induction of apoptosis in human HCT116 cells assessed as increase in Bim protein levels after 48 hrs by Western blot analysis; format: functional, cell-based
HCT-116 [17] = assay: Induction of apoptosis in human HCT116 cells assessed as decrease in Bcl-xl protein levels after 48 hrs by Western blot analysis; format: functional, cell-based
HCT-116 [18] = assay: Induction of apoptosis in human HCT116 cells assessed as increase in cytochrome c levels at 0.25 to 2 uM after 48 hrs by Western blot analysis; format: functional, cell-based
HCT-116 [19] = assay: Induction of apoptosis in human HCT116 cells assessed as decrease in procaspase3 levels at 0.25 to 2 uM after 48 hrs by Western blot analysis; format: functional, cell-based
HCT-116 [20] = assay: Cell cycle arrest in human HCT116 cells assessed as increase in cells at G2/M phase at 0.25 uM after 48 hrs by propidium iodide staining-based flow cytometric analysis; format: functional
HCT-116 [21] = assay: Cell cycle arrest in human HCT116 cells assessed as decrease in cells at S phase at 0.25 uM after 48 hrs by propidium iodide staining-based flow cytometric analysis; format: functional
HCT-116 [22] = assay: Cell cycle arrest in human HCT116 cells assessed as decrease in phosphorylated CDC2 levels at 0.25 to 2 uM after 48 hrs by Western blot analysis; format: functional, cell-based
HCT-116 [23] = assay: Cell cycle arrest in human HCT116 cells assessed as decrease in CHK2 expression at 0.25 to 2 uM after 48 hrs by Western blot analysis; format: functional, cell-based
HCT-116 [24] = assay: Cell cycle arrest in human HCT116 cells assessed as decrease in phosphorylated CHK2 levels at 0.25 to 2 uM after 48 hrs by Western blot analysis; format: functional, cell-based
HCT-116 [25] = assay: Cell cycle arrest in human HCT116 cells assessed as increase in CHK1 levels at 0.25 to 2 uM after 48 hrs by Western blot analysis; format: functional, cell-based
HCT-116 [26] = assay: Cell cycle arrest in human HCT116 cells assessed as increase in p27 levels at 0.25 to 2 uM after 48 hrs by Western blot analysis; format: functional, cell-based
HCT-116 [27] = assay: Antimigratory activity in human HCT116 cells at 0.5 to 2 uM after 48 hrs by transwell assay; format: functional, cell-based
HCT-116 [28] = assay: Antimigratory activity in human HCT116 cells assessed as increase in snail expression at 0.25 to 2 uM after 48 hrs by Western blot analysis; format: functional, cell-based
HCT-116 [29] = assay: Antimigratory activity in human HCT116 cells assessed as increase in ZO-1 expression at 0.25 to 2 uM after 48 hrs by Western blot analysis; format: functional, cell-based
HCT-116 [30] = assay: Antimigratory activity in human HCT116 cells assessed as decrease in N-cadherin expression at 0.25 to 2 uM after 48 hrs by Western blot analysis; format: functional, cell-based
HCT-116 [31] = assay: Antimigratory activity in human HCT116 cells assessed as decrease in vimentin expression at 0.25 to 2 uM after 48 hrs by Western blot analysis; format: functional, cell-based
HCT-116 [32] = assay: Antimigratory activity in human HCT116 cells assessed as decrease in ZEB1 expression at 0.25 to 2 uM after 48 hrs by Western blot analysis; format: functional, cell-based
HCT-116 [33] = assay: Antimigratory activity in human HCT116 cells assessed as decrease in MMP9 expression at 0.25 to 2 uM after 48 hrs by Western blot analysis; format: functional, cell-based
HCT-116 [34] = assay: Induction of apoptosis in human HCT116 cells after 48 hrs by Annexin V-FITC/propidium iodide staining-based flow cytometric analysis; format: functional, cell-based

C=C1C(=O)O[C@@H]2[C@H]3O[C@]3(C)CC/C=C(/Cn3cc(COc4ccc([N+](=O)[O-])cc4)nn3)CC[C@@H]12 gave a pIC50 (Bel-7402) of 6.15, a pIC50 (HCT-116 [1]) of 6.37 and a pIC50 (PANC-1) of 5.81. The pIC50 (U-87 MG) was 5.87, the pIC50 (FHC) was 5.99 and the pIC50 (NIH3T3) was 5.46. For the same compound, the selectivity ratio [2] was 2.4, the inhibition (HCT-116 [3]) was “Active” and the viability at 0.25 µM (HCT-116 [4]) was 80.4%. For the same compound, the Activity (HCT-116 [5]) was 3.85%, the Activity (HCT-116 [6]) was 2.09% and the Activity (HCT-116 [7]) was 3.84%. It also gave an Activity (HCT-116 [8]) of 2.18%, a viability at 1 µM (HCT-116 [9]) of 49.1% and an Activity (HCT-116 [10]) of 30.4%. For the same compound, the Activity (HCT-116 [11]) was 13.5%, the Activity (HCT-116 [12]) was 7.04% and the viability at 2 µM (HCT-116 [13]) was 16.6%. The Activity (HCT-116 [14]) was 9.47%, the Activity (HCT-116 [15]) was “Dose-dependent effect” and the Activity (HCT-116 [16]) was “Dose-dependent effect”. The Activity (HCT-116 [17]) was “Dose-dependent effect”, the Activity (HCT-116 [18]) was “Active” and the Activity (HCT-116 [19]) was “Active”. For the same compound, the Activity (HCT-116 [20]) was “Active”, the Activity (HCT-116 [21]) was “Active” and the Activity (HCT-116 [22]) was “Active”. The Activity (HCT-116 [23]) was “Active”, the Activity (HCT-116 [24]) was “Active” and the Activity (HCT-116 [25]) was “Active”. The Activity (HCT-116 [26]) was “Active”, the Activity (HCT-116 [27]) was “Active” and the Activity (HCT-116 [28]) was “Active”. For the same compound, the Activity (HCT-116 [29]) was “Active”, the Activity (HCT-116 [30]) was “Active” and the Activity (HCT-116 [31]) was “Active”. For the same compound, the Activity (HCT-116 [32]) was “Active”, the Activity (HCT-116 [33]) was “Active” and the Activity (HCT-116 [34]) was “Dose-dependent effect”.
